Residues, ends and D or L forms follow the SMILES beside them. *: point of attachment. Oleoyl = CCCCCCCC/C=C\CCCCCCCC(=O)*
Columns and labels:
[1] = molecular target: T1, human leucocytic elastase (Homo sapiens, UniProt P08246); test: Inhibition of purified leucocytic elastase, hydrolysis of synthetic paranitroanilide substrates; format: biochemical; conditions: for Percent inhibition: Leucocytic elastase 10×10^-9 M, molar ratio inhibitor/enzyme 4 × 10^4, 15 minutes pre-incubation; for elastase inhibitor (conclusion in words): conclusion on elastases in general
T1 construct: purified human leucocytic elastase starting from the spleen; from tissue; host or cells: human spleen
T1 sequence (P08246 30-267): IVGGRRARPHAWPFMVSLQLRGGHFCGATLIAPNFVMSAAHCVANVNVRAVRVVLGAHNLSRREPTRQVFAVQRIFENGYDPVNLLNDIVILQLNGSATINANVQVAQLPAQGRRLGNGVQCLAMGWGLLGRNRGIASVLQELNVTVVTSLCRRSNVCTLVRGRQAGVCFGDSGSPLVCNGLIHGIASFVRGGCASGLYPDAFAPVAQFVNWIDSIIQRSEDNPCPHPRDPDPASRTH
Description: (§1) Purified elastases employed: hog pancreatic elastase (120 U/mg) and purified human leucocytic elastase starting from the spleen.
(§2) Molar concentration of these enzymes: pancreatic elastase: 4×10^-9 M; leucocytic elastase: 10×10^-9 M.
(§3) The enzymatic activity of these elastases is followed by hydrolysis of specific synthetic substrates: N-succinoyltrialanine paranitroanilide, acetyl-bis alanylprolyl-alanine paranitroanilide at a final concentration of 1.25 mM in a Tris/HCl buffer, pH=8-8.6. The variation in optical density at 410 nm is followed directly in a Beckman type Acta C III spectrophotometer.
(§4) In the inhibition tests, the oleoyl compounds are pre-incubated 15 minutes with the elastases before determing the residual enzymatic activities.

pancreatic elastase [2] = molecular target: T2, pancreatic elastase (Sus scrofa, UniProt P00772); test: Resistance of pretreated radiolabelled elastin to hydrolysis by pancreatic elastase; format: biochemical, hog; conditions: elastin pretreated 24 hours, washed, then 0.05 mg pancreatic elastase; molar ratio inhibitor/enzyme 5 × 10^4
Description: (1c) Elastin pretreated with these substances is partially resistant to enzymatic hydrolysis by the elastases.
For these tests, elastin has been radiolabelled with tritium borohydride NaBH4, specific activity: 1.7×10^5 cmp/mg.
1 mg of elastin is treated with […] of a solution of different compounds in 1 ml of Tris HCl buffer, pH-8.0, for 24 hours; the mixture is centrifuged and the insoluble elastin washed with 1 ml of buffer. 0.05 mg of pancreatic elastase is then added and hydrolysis of the polymer is quantified by measurement of the radioactive peptides liberated during the course of the hydrolysis.

hog pancreatic elastase = molecular target: T3, hog pancreatic elastase (Sus scrofa, UniProt P00772); test: Inhibition of purified pancreatic elastase, hydrolysis of synthetic paranitroanilide substrates; format: biochemical; conditions: Pancreatic elastase 4×10^-9 M; molar ratio inhibitor/enzyme 4 × 10^4; 15 minutes pre-incubation
T3 construct: Purified elastases employed: hog pancreatic elastase (120 U/mg); host or cells: pancreas, by the enzyme's name only
Description: as §1, §2, §3, §4

pancreatic elastase [3] = molecular target: T2, pancreatic elastase; test: In vivo inhibition of degradation of cutaneous elastic fibers induced by intradermal injection of pancreatic elastase; set-up: host or cells: exogenous enzyme injected into rabbit skin; conditions: rabbit skin, intradermal pretreatment, histology and quantitative morphometry
Description: 2. In vivo study of the inhibiting action of Oleoyl-bis-alanyl-proline-alanine towards the enzymatic degradation of cutaneous elastic fibers induced by intradermal injection of pancreatic elastase
For these tests, young Garenne rabbits (1 month) have been employed. 3 types of intradermal injections (volume: 0.25 ml; solvent: phosphate buffer, pH 7.0) have been performed on the backs of the test animals.
1. Control injection: injection of 0.25 ml of phosphate buffer only;
2. Injection of hog pancreatic elastase: 10 micrograms (1.2 units […]) in 0.25 ml of buffer; and
3. Injections of 50-250 micrograms of Ol--(Ala)2 --Pro--Ala (8×10^-8 to 3×10^-7 mole) in 0.25 ml of buffer followed by an injection at the same site of 10 micrograms (1.2 units, 4×10^-10 mole) of pancreatic elastase in 0.25 ml of buffer.
Different samples of rabbit skin are then treated in histology in order to permit visualization of elastic fibers.
The histologic observation and studies of quantitative morphometry reveal: […]

T2 sequence (P00772 27-266): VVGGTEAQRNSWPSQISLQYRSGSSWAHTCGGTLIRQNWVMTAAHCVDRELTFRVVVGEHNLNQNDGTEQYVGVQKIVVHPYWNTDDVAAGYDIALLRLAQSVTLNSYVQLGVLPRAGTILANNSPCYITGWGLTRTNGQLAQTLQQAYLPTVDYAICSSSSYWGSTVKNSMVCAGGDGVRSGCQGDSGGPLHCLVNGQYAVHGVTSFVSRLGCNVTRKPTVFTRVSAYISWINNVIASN
T3 sequence (P00772 27-266): as above

SMILES | Percent inhibition [1] [%] | elastase inhibitor (conclusion in words) [1] | Percent inhibition relative to samples without pretreatment (pancreatic elastase [2]) [%] | Percent inhibition (hog pancreatic elastase) [%] | elastic tissue preserved (pancreatic elastase [3]; molar ratio inhibitor/enzyme 2×10^2) | elastic tissue preserved (pancreatic elastase [3]; molar ratio inhibitor/enzyme 10^3)
CCCCCCCC/C=C\CCCCCCCC(=O)N[C@@H](C)C(=O)N[C@@H](C)C(=O)N1CCC[C@H]1C(=O)N[C@H](C(=O)O)C(C)C [Ol(Ala)2 Pro Valine, Oleoyl-L-Alanyl-L-Alanyl-L-Prolyl-L-Valine] (Oleoyl-AAPV-OH) | 51 | act as elastase inhibitors | 46 | – | – | –
CCCCCCCC/C=C\CCCCCCCC(=O)N[C@@H](C)C(=O)N[C@@H](C)C(=O)N1CCC[C@H]1C(=O)N[C@@H](C)C(=O)O [Ol(Ala)2 Pro Alanine, Oleoyl-L-Alanyl-L-Alanyl-L-Prolyl-L-Alanine] (Oleoyl-AAPA-OH) | 5 | act as elastase inhibitors | – | 15 | 40-60% | 60-80%
CC(C)[C@H](NC(=O)[C@@H]1CCCN1C(=O)[C@H](C)NC(=O)[C@H](C)N)C(=O)O [H(Ala)2 Pro Valine, L-Alanyl-L-Alanyl-L-Prolyl-L-Valine, reference compound] (H-AAPV-OH) | – | – | 0 | – | – | –
CCCCCCCC/C=C\CCCCCCCC(=O)N[C@@H](C)C(=O)N[C@@H](C)C(=O)N1CCC[C@H]1C(=O)N[C@@H](C)C=O [Ol(Ala)2 Pro Alaninal, Oleoyl-L-Alanyl-L-Alanyl-L-Prolyl-L-Alaninal] (Oleoyl-AAPA-aldehyde) | 90 | act as elastase inhibitors | 98 | 85 | – | –
C[C@H](N)C(=O)N[C@@H](C)C(=O)N1CCC[C@H]1C(=O)N[C@@H](C)C(=O)O [H(Ala)2 Pro Alanine, L-Alanyl-L-Alanyl-L-Proyl-Alanine, reference compound] (H-AAPA-OH) | – | – | 0 | – | – | –
